This is an account of results in PubChem BioAssay AID1259407 (Chemical Carcinogenesis Research Information System (CCRIS), 2018).

The source made the active and inactive calls. How the calls were made is not given here.

The data set deals with CCRIS mutagenicity, Ames/micronucleus/aberration tests. Description: CCRIS mutagenicity studies.
The mark [1] stands for this setting: Test System: AMES SALMONELLA TYPHIMURIUM, Strain/Indicator: TA98, Metabolic Activation: NONE, Method: PREINCUBATION
The mark [2] stands for this setting: Test System: AMES SALMONELLA TYPHIMURIUM, Strain/Indicator: TA98, Metabolic Activation: NONE, Method: STANDARD PLATE.
[3] abbreviates: Test System: AMES SALMONELLA TYPHIMURIUM, Strain/Indicator: TA100, Metabolic Activation: NONE, Method: PREINCUBATION
Setting [4] is: Test System: AMES SALMONELLA TYPHIMURIUM, Strain/Indicator: TA100, Metabolic Activation: NONE, Method: STANDARD PLATE.

For the compound `COc1ccc(CN(CCN(C)C)c2ccccn2)cc1`, the mutagenic call runs as follows: (Test System: AMES SALMONELLA TYPHIMURIUM, Strain/Indicator: TA97, Metabolic Activation: NONE, Method: STANDARD PLATE) “inactive; negative”; (Test System: AMES SALMONELLA TYPHIMURIUM, Strain/Indicator: TA97, Metabolic Activation: RAT, LIVER, S-9, AROCLOR 1254, Method: STANDARD PLATE) “inactive; negative”; (Test System: AMES SALMONELLA TYPHIMURIUM, Strain/Indicator: TA98, Metabolic Activation: HAMSTER, LIVER, S-9, AROCLOR 1254 (10%), Method: PREINCUBATION) “inactive; negative”; under setting [1], “inactive; negative”; under setting [2], “inactive; negative”; (Test System: AMES SALMONELLA TYPHIMURIUM, Strain/Indicator: TA98, Metabolic Activation: RAT, LIVER, S-9, AROCLOR 1254 (10%), Method: PREINCUBATION) “inactive; negative”. Further, the mutagenic call by setting is: (Test System: AMES SALMONELLA TYPHIMURIUM, Strain/Indicator: TA98, Metabolic Activation: RAT, LIVER, S-9, AROCLOR 1254, Method: STANDARD PLATE) “inactive; negative”; (Test System: AMES SALMONELLA TYPHIMURIUM, Strain/Indicator: TA100, Metabolic Activation: HAMSTER, LIVER, S-9, AROCLOR 1254 (10%), Method: PREINCUBATION) “inactive; negative”; under setting [3], “inactive; negative”; under setting [4], “inactive; negative”; (Test System: AMES SALMONELLA TYPHIMURIUM, Strain/Indicator: TA100, Metabolic Activation: RAT, LIVER, S-9, AROCLOR 1254 (10%), Method: PREINCUBATION) “inactive; negative”; (Test System: AMES SALMONELLA TYPHIMURIUM, Strain/Indicator: TA100, Metabolic Activation: RAT, LIVER, S-9, AROCLOR 1254, Method: STANDARD PLATE) “inactive; negative”. Moreover, the mutagenic call (Test System: AMES SALMONELLA TYPHIMURIUM, Strain/Indicator: TA102, Metabolic Activation: NONE, Method: STANDARD PLATE) is “inactive; negative”; the mutagenic call (Test System: AMES SALMONELLA TYPHIMURIUM, Strain/Indicator: TA102, Metabolic Activation: RAT, LIVER, S-9, AROCLOR 1254, Method: STANDARD PLATE) is “inactive; negative”; the mutagenic call (Test System: AMES SALMONELLA TYPHIMURIUM, Strain/Indicator: TA1535, Metabolic Activation: HAMSTER, LIVER, S-9, AROCLOR 1254 (10%), Method: PREINCUBATION) was “inactive; negative”; the mutagenic call (Test System: AMES SALMONELLA TYPHIMURIUM, Strain/Indicator: TA1535, Metabolic Activation: NONE, Method: PREINCUBATION) is “inactive; negative”; the mutagenic call (Test System: AMES SALMONELLA TYPHIMURIUM, Strain/Indicator: TA1535, Metabolic Activation: RAT, LIVER, S-9, AROCLOR 1254 (10%), Method: PREINCUBATION) was “inactive; negative”; the mutagenic call (Test System: AMES SALMONELLA TYPHIMURIUM, Strain/Indicator: TA1537, Metabolic Activation: HAMSTER, LIVER, S-9, AROCLOR 1254 (10%), Method: PREINCUBATION) is “inactive; negative”. In addition, the mutagenic call was “inactive; negative” (Test System: AMES SALMONELLA TYPHIMURIUM, Strain/Indicator: TA1537, Metabolic Activation: NONE, Method: PREINCUBATION); “inactive; negative” (Test System: AMES SALMONELLA TYPHIMURIUM, Strain/Indicator: TA1537, Metabolic Activation: RAT, LIVER, S-9, AROCLOR 1254 (10%), Method: PREINCUBATION); “inactive; negative” (Test System: MOUSE LYMPHOMA, Strain/Indicator: L5178Y (TK+/TK-), Metabolic Activation: NONE, Method: SUSPENSION/PLATE); “active; positive” (Test System: MOUSE LYMPHOMA, Strain/Indicator: L5178Y (TK+/TK-), Metabolic Activation: RAT, LIVER, S-9, AROCLOR 1242 AND 1254 (2:1 MIXTURE), Method: SUSPENSION/PLATE).
Regarding `CC1(C)[C@H](C(=O)O[C@H](C#N)c2cccc(Oc3ccccc3)c2)[C@@H]1C(Br)C(Br)(Br)Br` (stereo partly specified), the mutagenic call runs as follows: (End Point: In vivo chromosomal aberrations, Test System: Bone marrow cells, Species: Rat, Strain/Sex: Sprague Dawley CD, Route: Gavage) “inactive; negative”; (Test System: Ames Salmonella typhimurium, Strain/Indicator: TA98, Metabolic Activation: None) “inactive; negative (precipitation above 100 ug/plate)”; (Test System: Ames Salmonella typhimurium, Strain/Indicator: TA98, Metabolic Activation: Rat, Liver, S-9, Aroclor 1254) “inactive; negative (precipitation above 100 ug/plate)”; (Test System: Ames Salmonella typhimurium, Strain/Indicator: TA100, Metabolic Activation: None) “inactive; negative (precipitation above 100 ug/plate)”; (Test System: Ames Salmonella typhimurium, Strain/Indicator: TA100, Metabolic Activation: Rat, Liver, S-9, Aroclor 1254) “inactive; negative (precipitation above 100 ug/plate)”; (Test System: Ames Salmonella typhimurium, Strain/Indicator: TA1535, Metabolic Activation: None) “inactive; negative (precipitation above 100 ug/plate)”. For the same compound, the mutagenic call is, setting by setting: (Test System: Ames Salmonella typhimurium, Strain/Indicator: TA1535, Metabolic Activation: Rat, Liver, S-9, Aroclor 1254) “inactive; negative (precipitation above 100 ug/plate)”; (Test System: Ames Salmonella typhimurium, Strain/Indicator: TA1537, Metabolic Activation: None) “inactive; negative (precipitation above 100 ug/plate)”; (Test System: Ames Salmonella typhimurium, Strain/Indicator: TA1537, Metabolic Activation: Rat, Liver, S-9, Aroclor 1254) “inactive; negative (precipitation above 100 ug/plate)”; (Test System: Ames Salmonella typhimurium, Strain/Indicator: TA1538, Metabolic Activation: None) “inactive; negative (precipitation above 100 ug/plate)”; (Test System: Ames Salmonella typhimurium, Strain/Indicator: TA1538, Metabolic Activation: Rat, Liver, S-9, Aroclor 1254) “inactive; negative (precipitation above 100 ug/plate)”.
Take `CC(C)(C)NCC(O)c1cc(Cl)c(N)c(C(F)(F)F)c1` (stereo unspecified): the mutagenic call was “inactive; negative” under setting [2]; “inactive; negative” (Test System: AMES SALMONELLA TYPHIMURIUM, Strain/Indicator: TA98, Metabolic Activation: RAT, LIVER, S-9, PCB, Method: STANDARD PLATE); “inactive; negative” under setting [4]; “inactive; negative” (Test System: AMES SALMONELLA TYPHIMURIUM, Strain/Indicator: TA100, Metabolic Activation: RAT, LIVER, S-9, PCB, Method: STANDARD PLATE); “inactive; negative” (Test System: AMES SALMONELLA TYPHIMURIUM, Strain/Indicator: TA1535, Metabolic Activation: NONE, Method: STANDARD PLATE); “inactive; negative” (Test System: AMES SALMONELLA TYPHIMURIUM, Strain/Indicator: TA1535, Metabolic Activation: RAT, LIVER, S-9, PCB, Method: STANDARD PLATE). Besides, the mutagenic call is, setting by setting: (Test System: AMES SALMONELLA TYPHIMURIUM, Strain/Indicator: TA1537, Metabolic Activation: NONE, Method: STANDARD PLATE) “inactive; negative”; (Test System: AMES SALMONELLA TYPHIMURIUM, Strain/Indicator: TA1537, Metabolic Activation: RAT, LIVER, S-9, PCB, Method: STANDARD PLATE) “inactive; negative”; (Test System: AMES SALMONELLA TYPHIMURIUM, Strain/Indicator: TA1538, Metabolic Activation: NONE, Method: STANDARD PLATE) “inactive; negative”; (Test System: AMES SALMONELLA TYPHIMURIUM, Strain/Indicator: TA1538, Metabolic Activation: RAT, LIVER, S-9, PCB, Method: STANDARD PLATE) “inactive; negative”.
`Nc1ccc2nc3c(N)cccc3nc2c1`: the mutagenic call reads like this: under setting [1], “inactive; negative”; (Test System: AMES SALMONELLA TYPHIMURIUM, Strain/Indicator: TA98, Metabolic Activation: RAT, LIVER, S-9, PCB, Method: PREINCUBATION) “active; positive”.
With `Nc1[nH]c(=O)nc2c1ncn2[C@H]1C[C@H](O)[C@@H](CO)O1`, under setting [3], the mutagenic call was “inactive; negative”.
Take `CC(=O)CCC(C)=O`: the mutagenic call reads like this: under setting [1], “inactive; negative”; (Test System: AMES SALMONELLA TYPHIMURIUM, Strain/Indicator: TA98, Metabolic Activation: RAT, LIVER, S-9, AROCLOR 1254, Method: PREINCUBATION) “inactive; negative”; under setting [3], “inactive; negative”; (Test System: AMES SALMONELLA TYPHIMURIUM, Strain/Indicator: TA100, Metabolic Activation: RAT, LIVER, S-9, AROCLOR 1254, Method: PREINCUBATION) “inactive; negative”; (Test System: AMES SALMONELLA TYPHIMURIUM, Strain/Indicator: TA102, Metabolic Activation: NONE, Method: PREINCUBATION) “inactive; negative”; (Test System: AMES SALMONELLA TYPHIMURIUM, Strain/Indicator: TA102, Metabolic Activation: RAT, LIVER, S-9, AROCLOR 1254, Method: PREINCUBATION) “inactive; negative”.
As to `C[C@]12CC[C@@H]3c4ccc(O)c(O)c4CC[C@H]3[C@@H]1CC[C@@H]2O`, the mutagenic call by setting is: (Test System: Ames Salmonella Typhimurium, Strain/Indicator: TA98, Metabolic Activation: None, Method: Standard plate) “inactive; negative”; (Test System: Ames Salmonella Typhimurium, Strain/Indicator: TA98, Metabolic Activation: Rat, liver, S-9 (0.5 ml), Method: Standard plate) “inactive; negative”; (Test System: Ames Salmonella Typhimurium, Strain/Indicator: TA100, Metabolic Activation: None, Method: Standard plate) “inactive; negative”; (Test System: Ames Salmonella typhimurium, Strain/Indicator: TA100, Metabolic Activation: Rat, liver, S-9, Method: Standard plate) “inactive; negative”.
